In test [1] the test system is streptozotocin-induced diabetic mice. Nature of the test: Blood glucose level (BS) in streptozotocin-induced diabetic mice. It counts as in vivo, C57BL/6J male mice. The note with it: 30 mg/kg i.p. once a day. Here is the method: 9-week-old C57BL/6J male mice were purchased and familiarized with an animal facility for 1 week. 200 mg/kg of streptozotocin (streptozotocin; STZ) was administered […] into the peritoneal cavity of 10-week-old mice to prepare streptozotocin-induced diabetic mice (hereinafter also referred to as “STZ administration week 0”). One week after the administration of streptozotocin, blood was collected from the tail vein of the mice, and the blood glucose level (BS) was measured using an automatic blood glucose measuring device (product name: Medisafe (trademark) Mini GR-102, made by Terumo (Co)). Mice having a blood glucose level of 400 mg/dL or more were determined to be diabetic mice.
The SMTP-44D groups, the edaravone group, and the pregabalin group were administered SMTP-44D (0.3 mg/kg, 3 mg/kg, or 30 mg/kg doses, respectively), edaravone (10 mg/kg dose), or pregabalin (10 mg/kg dose) into the peritoneal cavity once a day for 3 consecutive weeks from the day following the first week to the fourth week after STZ administration.
For the above-mentioned STZ group, SMTP-44D groups, edaravone group, pregabalin group, and control group mice, the following measurements were conducted every week from the 0th week, which began on the day when streptozotocin (STZ) was administered, to the 4th week (that is, a total of five times). As algesia tests, the following von Frey test and hot plate test were conducted, and hind plantar blood flow, body weight (BW), and blood glucose level (BS) were measured using the above-mentioned automatic blood glucose measure device. Note, for example, the 0th week represents the 0th day. That is, the measurements were conducted on the 0th, 7th, 14th, 21st, and 28th days.

Test [2] in a line: Body weight in diabetic nephropathy model mice. It is filed as in vivo, Male db/db mice. Conditions: 30 mg/kg i.p. once every two days for 10 weeks; 16 weeks old.
Test [3] has as its system diabetic nephropathy model mice. Nature of the test: Urine volume (24 h, metabolic cage). Conditions: 16 weeks old, 24 h urine. It is filed as in vivo, Male db/db mice.
Test [4] has the same test system. The test is described as follows: Urinary albumin. The note with it: 30 mg/kg i.p. once every two days for 10 weeks; 16 weeks old.
The test system is the same in test [5]. Nature of the test: Serum creatinine. The note with it: 16 weeks old.
For test [6] the test system is unchanged. Nature of the test: Blood glucose level in diabetic nephropathy model mice. It is filed as in vivo, Male db/db mice. Conditions: 30 mg/kg i.p. once every two days for 10 weeks; 16 weeks old.
The test system is the same in test [7]. The test is described as follows: Tubular regeneration score (HE-stained kidney). It counts as in vivo, Male db/db mice. The note with it: 16 weeks old, score 0 to 4.
[8] abbreviates: 30 mg/kg i.p. once every two days for 10 weeks.
Where [9] appears, read: 300 mg/kg orally once every two days for 10 weeks.

From US20220218664A1, “DRUG AND METHOD FOR TREATING OR PREVENTING COMPLICATIONS FROM DIABETES, USING SAID DRUG” (TMS Co., Ltd., priority 2019, published 2022) come the findings set out here.

In the case of `CC(C)=CCC/C(C)=C/CCC1(C)Oc2c(c(O)cc3c2CN([C@H](Cc2ccccc2)C(=O)O)C3=O)CC1O` (some centres unmarked) [SMTP-4D], the “BS (blood glucose level)” value in test [1] (0th week (before dosing)) was 203.5 ± 5.5 mg/dL; in test [1] (1st week (before dosing)) it was 535.5 ± 28.7 mg/dL; in test [1] (2nd week), 597.3 ± 44.8 mg/dL; in test [1] (3rd week), 638.7 ± 34.2 mg/dL; in test [1] (4th week) it was 580.3 ± 42.9 mg/dL.

As for `CC(C)=CCC/C(C)=C/CCC1(C)Oc2c(c(O)cc3c2CN(c2cc(C(=O)O)ccc2O)C3=O)CC1O` (centres unmarked) [SMTP-27], in test [2], the “Body weight compared to the DN group” value is on record as “No significant changes”. Further, in test [3] (setting [8]), the Urine volume came to 1659.2 ± 270.2 µL. Moreover, in test [4], the Urinary albumin amounted to 0.3 ± 0.1 mg/h/kg. In test [5] (setting [8]), this molecule gave a Serum creatinine of 0.4 ± 0.1 mg/dL. Moreover, in test [6], the “Blood glucose levels compared to the DN group” value is “No significant changes”. Further, the Tubular regeneration score in test [7] (setting [8]) worked out at 0.0±0.0 pts.

`CN(C)C(=N)N=C(N)N` [metformin] returned a Urine volume in test [3] (setting [9]) of 1678.3 ± 250.4 µL. Moreover, in test [5] (setting [9]), the Serum creatinine worked out at 0.6 ± 0.0 mg/dL. For the same molecule, the Tubular regeneration score in test [7] (setting [9]) stood at 0.5±0.2 pts.
